A word on the IC50: it is the concentration needed to halve the response being measured. Read a low IC50 as inhibition by little substance.

Each structure is given as a SMILES string. Counter-ions that a name gives are not always drawn.

catalytic domain of human PARP14, sequence (Q460N5 1611-1801): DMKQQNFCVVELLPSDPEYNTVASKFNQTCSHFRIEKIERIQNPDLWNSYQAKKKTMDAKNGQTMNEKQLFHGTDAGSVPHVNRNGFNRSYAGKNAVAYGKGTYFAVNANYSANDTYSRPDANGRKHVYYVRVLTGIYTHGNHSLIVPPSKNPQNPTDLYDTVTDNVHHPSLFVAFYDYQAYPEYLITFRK

In the test the target is catalytic domain of human PARP14 (Homo sapiens (Human), UniProt Q460N5). Kind of test: Enzymatic assay for inhibition of PARP14 (DELFIA, auto-modification with biotin-NAD). The test is classed as biochemical. Particulars: auto-modification of PARP14 by biotin-NAD, 50 nM PARP14, 3 μM biotin-NAD. How it is done:
An N-terminal His-TEV fusion tag was used to purify the protein from cell lysates. The His-TEV tag was left on the protein for use in the enzymatic assay.
Enzymatic inhibition of PARP14 was measured using a dissociation-enhanced lanthanide fluorescence immunoassay (DELFIA) monitoring the auto-modification of PARP14 by biotinylated nicotinamide adenine dinucleotide (biotin-NAD). 1 μL of a dose response curve of each test compound was spotted in 384-well nickel-coated white microplates (Thermo) using a Mosquito (TTP Labtech). Reactions were performed in a 50 μL volume by adding 40 μL of PARP14 in assay buffer (20 mM HEPES pH==8, 100 mM NaCl, 0.1% bovine serum albumin, 2 mM DTT and 0.002%0 Tween20), incubating with test compound at 25° C. for 30 min, then adding 10 μL of biotin-NAD (Biolog). The final concentrations of PARP14 and biotin-NAD are 50 nM and 3 μM, respectively. Reactions proceeded at 25° C. for 3 h, then were quenched with 5 μL of 10 mM unmodified nicotinamide adenine dinucleotide (Sigma-Aldrich). The quenched reactions were washed 3 times with 100 μL of TBST wash buffer (50 mM Tris-HCl, 150 mM NaCl and 0.1% Tween20). Next, to the washed and dried plate was added 25 μL of DELFIA Europium-N1 streptavidin (Perkin Elmer) diluted in DELFIA assay buffer (Perkin Elmer). After a 30 min incubation at 25° C., the plate was washed 5 times with TBST wash buffer. Finally, 25 μL of DELFIA enhancement solution was added. After a 5 min incubation the plate was read on an Envision platereader equipped with a LANCE/DELFIA top mirror (Perkin Elmer) using excitation of 340 nm and emission of 615 nm to measure the amount of Europium present in each well, informing on the amount of biotin-NAD that was transferred in the automodification reaction.
[formula] where ex615cmpd is the emission from the compound treated well, ex615min is the emission from the rucaparib treated positive control well and ex615max is the emission from the DMSO treated negative control well.
The % inhibition values were plotted as a function of compound concentration and the following 4-parameter fit was applied to derive the IC50 values:
[formula] where top and bottom are normally allowed to float, but may be fixed at 100 or 0 respectively in a 3-parameter fit. The Hill Coefficient is normally allowed to float but may also be fixed at 1 in a 3-parameter fit. Y is the % inhibition and X is the compound concentration.
On to `Cc1cccc2c(=O)[nH]c(CSC3CCN(CCc4ccccc4)CC3)nc12` [Example 147, 8-Methyl-2-(((1-phenethylpiperidin-4-yl)thio)methyl)quinazolin-4(3H)-one trifluoroacetate], for which the IC50 is less than 1000 nM.

In turn, `Cc1n[nH]cc1CN1CCC(SCc2nc3c(C)cccc3c(=O)[nH]2)CC1` [Example 149, 8-Methyl-2-(((1-((3-methyl-1H-pyrazol-4-yl)methyl)piperidin-4-yl)thio)methyl)quinazolin-4(3H)-one trifluoroacetate] yielded an IC50 of 1000 to 10000 nM. In the case of `O=c1[nH]c(CSC2CCOCC2)nc2cc(OCC3CC3)cc(F)c12` [Example 291, 7-(Cyclopropylmethoxy)-5-fluoro-2-(((tetrahydro-2H-pyran-4-yl)thio)methyl)quinazolin-4(3H)-one], the IC50 is less than 1000 nM.

On to `Cc1ccc(C(F)(F)F)c2c(=O)[nH]c(CSC3CCC(O)CC3)nc12` (stereo not drawn) [Example 59, 2-(((4-Hydroxycyclohexyl)thio)methyl)-8-methyl-5-(trifluoromethyl)quinazolin-4(3H)-one], for which the IC50 was less than 1000 nM. With `CC(=O)N1CCCC(Nc2ccc3c(=O)[nH]c(CSC4CCOCC4)nc3c2)C1` (stereo not drawn) [Example 132, 7-((1-Acetylpiperidin-3-yl)amino)-2-(((tetrahydro-2H-pyran-4-yl)thio)methyl)quinazolin-4(3H)-one], the 50% inhibitory concentration (IC50) was greater than 10000 nM.

`O=c1[nH]c(CS[C@H]2CC[C@H](CO)CC2)nc2cc(NC3CCCCC3)ccc12` [Example 136, 7-(Cyclohexylamino)-2-(((trans-4-(hydroxymethyl)cyclohexyl)thio)methyl) quinazolin-4(3H)-one]: the IC50 is less than 1000 nM. Molecule `CO[C@H]1CC[C@@H](Nc2cc3nc(CS[C@H]4CC[C@H](O)CC4)[nH]c(=O)c3c(F)c2F)CC1` [Example 379] came in with an IC50 of less than 1000 nM. In the case of `COc1cccc2c(=O)[nH]c(CSC3CCOCC3)nc12` [Example 6], the IC50 lay in the range of 1000 to 10000 nM. Turning to `O=C(CO)N1CCC(SCc2nc3cc(OCC4CCC4)cc(F)c3c(=O)[nH]2)CC1` [Example 307, 7-(Cyclobutylmethoxy)-5-fluoro-2-(((1-(2-hydroxyacetyl)piperidin-4-yl)thio)methyl)quinazolin-4(3H)-one], the IC50 was less than 1000 nM. Molecule `N#CCN1CCC(SCc2nc3cc(NC4CCCC4)cc(F)c3c(=O)[nH]2)CC1` [Example 285, 2-(4-(((7-(Cyclopentylamino)-5-fluoro-4-oxo-3,4-dihydroquinazolin-2-yl)methyl)thio)piperidin-1-yl)acetonitrile] returned an IC50 of less than 1000 nM.

With `O=c1[nH]c(CS[C@@H]2CCNC[C@@H]2F)nc2cc(NC3CCCC3)cc(F)c12` [Example 213b, 7-(cyclopentylamino)-5-fluoro-2-((((3S,4R)-3-fluoropiperidin-4-yl)thio)methyl)quinazolin-4(3H)-one], the IC50 was less than 1000 nM. The same measure for `O=c1[nH]c(CSC2CCOCC2)nc2cc(N[C@H]3C[C@@H](OC(F)(F)F)C3)c(F)c(F)c12` [Example 402]: less than 1000 nM; for `Cc1cccc2c(=O)[nH]c(CS[C@H]3CCC[C@H](CO)C3)nc12` (relative stereo) [Example 70, 2-(((trans-3-(Hydroxymethyl)cyclohexyl)thio)methyl)-8-methylquinazolin-4(3H)-one]: 1000 to 10000 nM. The molecule `O=c1[nH]c(CSC2CCOCC2)nc2cc(OCC3CC3)ccc12` [Example 219, 7-(Cyclopropylmethoxy)-2-(((tetrahydro-2H-pyran-4-yl)thio)methyl)quinazolin-4(3H)-one] returned an IC50 of less than 1000 nM.

Consider `CCO[C@H]1C[C@@H](Nc2cc3nc(CSC4CCOCC4)[nH]c(=O)c3c(F)c2F)C1` [Example 331, 7-(((cis)-3-Ethoxycyclobutyl)amino)-5,6-difluoro-2-(((tetrahydro-2H-pyran-4-yl)thio)methyl)quinazolin-4(3H)-one], for which the IC50 was less than 1000 nM.

Consider `CN1CCC(SCc2nc3cc(NC4CCCC4)cc(F)c3c(=O)[nH]2)CC1` [Example 246, 7-(Cyclopentylamino)-5-fluoro-2-(((1-methylpiperidin-4-yl)thio)methyl)quinazolin-4(3H)-one], for which the 50% inhibitory concentration (IC50) was less than 1000 nM. Turning to `Cc1cccc2c(=O)[nH]c(CSC3CCN(C(=O)[C@H](N)CCCNC(=N)N)CC3)nc12` [Example 169, (R)-1-(4-Amino-5-(4-(((8-methyl-4-oxo-3,4-dihydroquinazolin-2-yl)methyl)thio)piperidin-1-yl)-5-oxopentyl)guanidine Trihydrochloride], the 50% inhibitory concentration (IC50) was less than 1000 nM. In turn, `O=C(N[C@H]1CC[C@H](SCc2nc3cc(OCC4CC4)cc(F)c3c(=O)[nH]2)CC1)C1CC1` [Example 395] displayed an IC50 of less than 1000 nM.

Regarding `CO[C@H]1CC[C@H](SCc2nc3cc(OCC4CCOCC4)cc(F)c3c(=O)[nH]2)CC1` [Example 356], the 50% inhibitory concentration (IC50) was less than 1000 nM. Consider `O=c1[nH]c(CSC2CCNCC2)nc2cc(OCC3CC3)cc(F)c12` [Example 278, 7-(Cyclopropylmethoxy)-5-fluoro-2-((piperidin-4-ylthio)methyl)quinazolin-4(3H)-one], for which the IC50 was less than 1000 nM. `O=c1[nH]c(CSC2CCOCC2)nc2cc(NC[C@H]3CCOC3)c(F)c(F)c12` [Example 323b, (R)-5,6-Difluoro-2-(((tetrahydro-2H-pyran-4-yl)thio)methyl)-7-(((tetrahydrofuran-3-yl)methyl)amino)quinazolin-4(3H)-one]: the IC50 is less than 1000 nM. For the molecule `O=c1[nH]c(CSC2CCOCC2)nc2cc(OCC3CCCO3)cc(F)c12` (stereo not drawn) [Example 320, 5-Fluoro-2-(((tetrahydro-2H-pyran-4-yl)thio)methyl)-7-((tetrahydrofuran-2-yl)methoxy)quinazolin-4(3H)-one], the half-inhibitory concentration (IC50) was less than 1000 nM. Regarding `O=c1[nH]c(CS[C@H]2CCN[C@H](C(F)(F)F)C2)nc2cc(NC3CCCC3)cc(F)c12` (relative stereo) [Example 227, 7-(Cyclopentylamino)-5-fluoro-2-(((trans-2-(trifluoromethyl)piperidin-4-yl)thio)methyl)quinazolin-4(3H)-one bis Trifluoroacetate], the IC50 was in the range of 1000 to 10000 nM.

As to `O=c1[nH]c(CSC2CCOCC2)nc2cc(OC[C@@H]3CCOC3)cc(F)c12` [Example 239a, (R)-5-fluoro-2-(((tetrahydro-2H-pyran-4-yl)thio)methyl)-7-((tetrahydrofuran-3-yl)methoxy)quinazolin-4(3H)-one], the IC50 is less than 1000 nM. Molecule `O=c1[nH]c(CSC2CCOCC2)nc2cc(NCC3CC3)c(F)cc12` [Example 292, 7-((Cyclopropylmethyl)amino)-6-fluoro-2-(((tetrahydro-2H-pyran-4-yl)thio)methyl)quinazolin-4(3H)-one] gave an IC50 of less than 1000 nM. Take `CN1CC[C@H](CNc2cc3nc(CSC4CCOCC4)[nH]c(=O)c3c(F)c2F)[C@H](F)C1` (relative stereo) [Example 408]: the half-inhibitory concentration (IC50) lay within 1000 to 10000 nM. As to `Cc1cncc(Nc2ccc3c(=O)[nH]c(CSC4CCOCC4)nc3c2)c1` [Example 92, 7-((5-Methylpyridin-3-yl)amino)-2-(((tetrahydro-2H-pyran-4-yl)thio)methyl)quinazolin-4(3H)-one], the IC50 was 1000 to 10000 nM.

With `Cc1cccc2c(=O)[nH]c(CS[C@H]3CC[C@@H](CN)CC3)nc12` [Example 65, 2-(((cis-4-(Aminomethyl)cyclohexyl)thio)methyl)-8-methylquinazolin-4(3H)-one Trifluoroacetate], the IC50 was 1000 to 10000 nM. `Cc1cccc2c(=O)[nH]c(C(C)SC3CCOCC3)nc12` (stereo not drawn) [Example 7] yielded an IC50 greater than 10000 nM. The same measure for `C[C@]1(O)C[C@H](COc2cc(F)c3c(=O)[nH]c(CSC4CCOCC4)nc3c2)C1` [Example 385]: less than 1000 nM.

In turn, `Cc1ccc(C(F)(F)F)c2c(=O)[nH]c(CS[C@H]3CC[C@@H](O)CC3)nc12` [Example 61, 2-(((cis-4-Hydroxycyclohexyl)thio)methyl)-8-methyl-5-(trifluoromethyl) quinazolin-4(3H)-one] had a half-inhibitory concentration (IC50) of less than 1000 nM. On to `CN1CC[C@@H](COc2cc(F)c3c(=O)[nH]c(CSC4CCOCC4)nc3c2)[C@H](F)C1` [Example 327a, 5-Fluoro-7-(((3S,4S)-3-fluoro-1-methylpiperidin-4-yl)methoxy)-2-(((tetrahydro-2H-pyran-4-yl)thio)methyl)quinazolin-4(3H)-one], for which the half-inhibitory concentration (IC50) was less than 1000 nM. For the molecule `O=c1[nH]c(CSC2CCOCC2)nc2cc(NC3CCCC3)ccc12` [Example 115, 7-(Cyclopentylamino)-2-(((tetrahydro-2H-pyran-4-yl)thio)methyl)quinazolin-4(3H)-one], the IC50 is less than 1000 nM.
